Results reported in US20230183310A1, “Polypeptide Compounds and Use Thereof in the Prevention or Treatment of Diabetes or Diabetic Complications” (Shenzhen Turier Biotech Co., Ltd., priority 2020, published 2023).
*1 amine or outer side, *2 acyl side, *3 side chain or, on linkers, in order; H or OH if unused. Primed or numbered codes have the meaning given here. Where no end group is shown, it is not given here. Side-chain parts run from the residue outwards. [ ]: non-standard residue; d: D form. The star is where a group is joined. C20 diacid = O=C(O)CCCCCCCCCCCCCCCCCCC(=O)*; γGlu = O=C(O)[C@H](CCC(=O)[*:2])N[*:1]; Iva = CC[C@](C)(N)C(=O)O; PEG2′ = not defined here; Aib = CC(C)(N)C(=O)O

Legend:
FN protein (fibronectin) = assay: Western blot of FN protein in high glucose-induced in vitro renal fibrosis cell model; type: cell-based, rat; conditions: 10 μM; 30 mmol/L glucose; 48 h; mesangial and renal epithelial cells
Excerpt: Hyperglycemia and increased production of glycosylation end products will cause morphological changes such as proliferation and hypertrophy of glomerular mesangial cells, increase in extracellular matrix (ECM) and mesangial expansion, which will eventually lead to the loss of its physiological function. […] Therefore, this example used high glucose to induce MCS mesangial cells and NRK renal epithelial cells to construct an in vitro renal fibrosis cell model for screening medicaments useful for the treatment of diabetic nephropathy. The renal mesangial cell strain GMC and glomerular epithelial cells mTEC used in this example were both cells kept in the applicant's laboratory (both were extracted from rat renal primary cells) and cultured in low sugar medium containing 10% fetal bovine serum. The cells were starved with serum-free culture medium for 24 h when grew to 70% confluence. The cells were divided into the following 9 groups by adjusting the glucose concentration as follows: […]

db/db diabetic mice [1] = assay: Dose determination in 8-week-old db/db diabetic mice: blood glucose and body weight; type: in vivo; conditions: for body weight (weight-lowering effect) / weight-lowering effect relative to compounds 3 and 8 / blood glucose (glucose-lowering effect): FIG. 3A, daily s.c.; for effect relative to polypeptide compounds 3 and 8 / overall hypoglycemic effect / blood glucose (hypoglycemic effect) / subsequent blood glucose course (long-lasting effect): FIG. 3B, every other day s.c.; for subsequent blood glucose course (long-lasting effect): from day 3 / after days 3-5
Description: The db/db mice diabetic model (purchased from Nanjing University-Nanjing Institute of Biomedical Research, about 8 weeks, and blood glucose and body weight were measured to ensure the smooth subsequent experiments) was obtained, and the model mice were randomly divided into 12 groups (including polypeptide compounds 3, 8, 13, 15, semaglutide and physiological saline groups), with 6 mice in each group and no difference in basal body weight and blood glucose. Each group was injected subcutaneously with compound 3 (80 and 120 μg/kg, 2 groups), compound 8 (80 and 120 μg/kg, 2 groups), compound 13 (80 and 120 μg/kg, 2 groups), compound 15 (80 and 120 μg/kg, 2 groups), semaglutide (80 and 120 μg/kg, 2 groups) and physiological saline (DN group: normal mice born in the same litter; DC group: db/db mice control group) every day or every other day.
Blood glucose and body weight of mice were measured after daily administration and 6 h fasting on alternate days.

C57BL/6J mice = assay: Oral glucose tolerance (OGTT), repeated glucose loads followed to 24 h after one s.c. dose; type: in vivo; conditions: four OGTT curves (0-22 h); 100 μg/kg subcutaneously
Description: Eight-week-old male C57BL/6J mice (Model Animal Research Center, Nanjing University) were randomly grouped according to similar blood glucose (assessed by blood samples obtained from the tail tip), with six mice in each group. […] The initial blood samples (fasted blood glucose levels) were obtained after about 4 h. Subsequently, an oral dose of glucose (2 g/kg) was administered and the animals were placed back in their holding cages (t=0). […] The oral dose of glucose was then repeated at 8 h of administration, 12 h of administration and […], and blood glucose changes were detected and followed until 24 hours. The data were processed using the software GraphPadPrism to make a line graph of blood glucose changes, and the area under the curve was calculated to obtain an AUC graph, and the results are shown in FIG. 1.

db/db diabetic mice [2] = assay: Treatment of 12-week-old db/db diabetic mice: blood glucose, OGTT, ITT, ALT/AST, diabetic nephropathy indices; type: in vivo; conditions: for weekly blood glucose (hypoglycemic effect): FIG. 4A, blood glucose at normal levels at week 1; for weekly blood glucose (hypoglycemic effect) / improving oral glucose tolerance (OGTT) / improving insulin resistance (ITT) / ALT and AST in serum (hepatoprotective function): 120 μg/kg s.c. daily; for improving oral glucose tolerance (OGTT): FIG. 4B, week 4; for improving insulin resistance (ITT): FIG. 4C, week 5; for ALT and AST in serum (hepatoprotective function): FIG. 4D; for H&E staining of kidneys: glomerular adhesion, ameliorative and therapeutic effects: FIG. 5B; for H&E staining of kidneys: glomerular adhesion, ameliorative and therapeutic effects / PAS staining of kidneys: ameliorative effects on glomerular mesangial region / collagen content (Sirius red, FN and α-SMA staining of kidneys): after 8 weeks; for H&E staining of kidneys: glomerular adhesion, ameliorative and therapeutic effects / collagen content (Sirius red, FN and α-SMA staining of kidneys): compared to semaglutide, SAR425899 and MED C18-acid groups; for PAS staining of kidneys: ameliorative effects on glomerular mesangial region: FIG. 5C; for collagen content (Sirius red, FN and α-SMA staining of kidneys): FIGS. 5D to 5F
Description: Normal mice born in the same litter; DC group: db/db mice control group). Blood glucose and body weight were measured on alternate days after daily administration of the medicament, and water intake and food intake were measured once a week. OGTT was measured at week 4, insulin tolerance (ITT) was measured at week 5, metabolism of mice was examined using mouse metabolic cages at weeks 6-7, and various serological and pathological indices were taken at week 8.
Type 2-diabetes mice were characterized by obesity, insulin resistance, hyperglycemia, dyslipidemia and hepatic fat vacuole-like degeneration.
After 6 weeks of medical treatment, the mice was collected for urine using metabolic cages, and the protein content in the urine was detected using relevant kits. After 7 weeks of medical treatment, the material was taken and blood was used to detect serological indicators such as blood creatinine and urea nitrogen.

His-Aib-Gln-Gly-Thr-Phe-Thr-Ser-Asp-Lys(Gly-Gly-Ser-Gly-Ser-Gly-γGlu-CO(CH2)18-COOH)-Ser-Lys-Tyr-Leu-Asp-Glu-Arg-Ala-Ala-Gln-Asp-Phe-Iva-Gln-Trp-Leu-Leu-Asp-Gly-Gly-Pro-Ser-Ser-Gly-Aib-Pro-Pro-Pro-Ser (H[Aib]QGTFTSDKSKYLDERAAQDF[Iva]QWLLDGGPSSG[Aib]PPPS; not fully specified (residue 10, C-terminus)) [Compound 15]
FN protein expression (Western blot) (FN protein (fibronectin)): inhibited FN expression more significantly | body weight (weight-lowering effect) (db/db diabetic mice [1]): better weight-lowering effect | weight-lowering effect relative to compounds 3 and 8 (db/db diabetic mice [1]): superior to that of compounds 3 and 8 | blood glucose (glucose-lowering effect) (db/db diabetic mice [1]; 80 μg/kg): significant glucose-lowering effect with long-lasting effect | blood glucose (glucose-lowering effect) (db/db diabetic mice [1]; 120 μg/kg, vs saline DC group): good glucose-lowering effect in 3-5 days | effect relative to polypeptide compounds 3 and 8 (db/db diabetic mice [1]): better than that of polypeptide compounds 3 and 8 | overall hypoglycemic effect (db/db diabetic mice [1]): more excellent hypoglycemic effect | blood glucose (hypoglycemic effect) (db/db diabetic mice [1]; 80 μg/kg): significant hypoglycemic effect on day 3, but the subsequent blood glucose level did not change much and tended to be stable | blood glucose (hypoglycemic effect) (db/db diabetic mice [1]; 120 μg/kg): good hypoglycemic effect on days 3-5 | subsequent blood glucose course (long-lasting effect) (db/db diabetic mice [1]; 120 μg/kg): kept good hypoglycemic effect | long-acting hypoglycemic effects compared to semaglutide (C57BL/6J mice): superior and significant long-acting hypoglycemic effects | weekly blood glucose (hypoglycemic effect) (db/db diabetic mice [2]): significant hypoglycemic effects | improving oral glucose tolerance (OGTT) (db/db diabetic mice [2]): performed more excellent | improving insulin resistance (ITT) (db/db diabetic mice [2]): performed more excellent | ALT and AST in serum (hepatoprotective function) (db/db diabetic mice [2]): more excellent hepatoprotective functions | H&E staining of kidneys: glomerular adhesion, ameliorative and therapeutic effects (db/db diabetic mice [2]): more significant | PAS staining of kidneys: ameliorative effects on glomerular mesangial region (db/db diabetic mice [2]): more significant | collagen content (Sirius red, FN and α-SMA staining of kidneys) (db/db diabetic mice [2]): improved more significantly

His-(D-Ser)-Gln-Gly-Thr-Phe-Thr-Ser-Asp-Lys(Gly-Gly-Ser-Gly-Ser-Gly-γGlu-CO(CH2)18-COOH)-Ser-Lys-Tyr-Leu-Glu-Aib-Lys-Ala-Ala-Gln-Asp-Phe-Val-Glu-Trp-Leu-Lys-Ala-Gly-Gly-Pro-Ser-Ser-Gly-Ala-Pro-Pro-Pro-Ser (H[dS]QGTFTSDKSKYLE[Aib]KAAQDFVEWLKAGGPSSGAPPPS; not fully specified (residue 10, C-terminus)) [Compound 13]
FN protein expression (Western blot) (FN protein (fibronectin)): inhibited FN expression more significantly | body weight (weight-lowering effect) (db/db diabetic mice [1]): better weight-lowering effect | weight-lowering effect relative to compounds 3 and 8 (db/db diabetic mice [1]): superior to that of compounds 3 and 8 | blood glucose (glucose-lowering effect) (db/db diabetic mice [1]; 80 μg/kg): significant glucose-lowering effect with long-lasting effect | blood glucose (glucose-lowering effect) (db/db diabetic mice [1]; 120 μg/kg, vs saline DC group): good glucose-lowering effect in 3-5 days | effect relative to polypeptide compounds 3 and 8 (db/db diabetic mice [1]): better than that of polypeptide compounds 3 and 8 | overall hypoglycemic effect (db/db diabetic mice [1]): more excellent hypoglycemic effect | blood glucose (hypoglycemic effect) (db/db diabetic mice [1]; 80 μg/kg): significant hypoglycemic effect on day 3, but the subsequent blood glucose level did not change much and tended to be stable | blood glucose (hypoglycemic effect) (db/db diabetic mice [1]; 120 μg/kg): good hypoglycemic effect on days 3-5 | subsequent blood glucose course (long-lasting effect) (db/db diabetic mice [1]; 120 μg/kg): kept good hypoglycemic effect | long-acting hypoglycemic effects compared to semaglutide (C57BL/6J mice): superior and significant long-acting hypoglycemic effects | weekly blood glucose (hypoglycemic effect) (db/db diabetic mice [2]): significant hypoglycemic effects | improving oral glucose tolerance (OGTT) (db/db diabetic mice [2]): performed more excellent | improving insulin resistance (ITT) (db/db diabetic mice [2]): performed more excellent | ALT and AST in serum (hepatoprotective function) (db/db diabetic mice [2]): more excellent hepatoprotective functions | H&E staining of kidneys: glomerular adhesion, ameliorative and therapeutic effects (db/db diabetic mice [2]): more significant | PAS staining of kidneys: ameliorative effects on glomerular mesangial region (db/db diabetic mice [2]): more significant | collagen content (Sirius red, FN and α-SMA staining of kidneys) (db/db diabetic mice [2]): improved more significantly

His-(D-Ser)-Gln-Gly-Thr-Phe-Thr-Ser-Asp-Lys(PEG2-PEG2-γGlu-CO(CH2)18CO2H)-Ser-Lys-Tyr-Leu-Glu-Aib-Lys-Ala-Ala-Gln-Asp-Phe-Val-Glu-Trp-Leu-Lys-Ala-Gly-Gly-Pro-Ser-Ser-Gly-Ala-Pro-Pro-Pro-Ser-NH2 (H[dS]QGTFTSDK([PEG2′-PEG2′-γGlu-C20 diacid])SKYLE[Aib]KAAQDFVEWLKAGGPSSGAPPPS-NH2) [Compound 3]
FN protein expression (Western blot) (FN protein (fibronectin)): inhibited FN expression more significantly | body weight (weight-lowering effect) (db/db diabetic mice [1]): better weight-lowering effect | blood glucose (glucose-lowering effect) (db/db diabetic mice [1]; 80 μg/kg): significant glucose-lowering effect | blood glucose (glucose-lowering effect) (db/db diabetic mice [1]; 120 μg/kg, vs saline DC group): good glucose-lowering effect in 3-5 days | overall hypoglycemic effect (db/db diabetic mice [1]): more excellent hypoglycemic effect | blood glucose (hypoglycemic effect) (db/db diabetic mice [1]; 80 μg/kg): first decrease and then increase, and the overall hypoglycemic effect was significant | blood glucose (hypoglycemic effect) (db/db diabetic mice [1]; 120 μg/kg): good hypoglycemic effect on days 3-5 | subsequent blood glucose course (long-lasting effect) (db/db diabetic mice [1]; 120 μg/kg): the blood glucose did not change much | long-acting hypoglycemic effects compared to semaglutide (C57BL/6J mice): superior and significant long-acting hypoglycemic effects | weekly blood glucose (hypoglycemic effect) (db/db diabetic mice [2]): significant hypoglycemic effects | improving oral glucose tolerance (OGTT) (db/db diabetic mice [2]): performed more excellent | improving insulin resistance (ITT) (db/db diabetic mice [2]): performed more excellent | ALT and AST in serum (hepatoprotective function) (db/db diabetic mice [2]): more excellent hepatoprotective functions | H&E staining of kidneys: glomerular adhesion, ameliorative and therapeutic effects (db/db diabetic mice [2]): more significant | PAS staining of kidneys: ameliorative effects on glomerular mesangial region (db/db diabetic mice [2]): more significant | collagen content (Sirius red, FN and α-SMA staining of kidneys) (db/db diabetic mice [2]): improved more significantly
